From patent US9044463B2, “FSH receptor antagonists” (Merck Sharp & Dohme B.V., priority 2011, dated 2015) come the findings set out here.

For orientation: IC50 means the point on the concentration scale where inhibition reaches its midpoint.

This test deals with T1, human FSH receptor (Homo sapiens, UniProt P23945).
T1 construct: expressed in transfected cells; host or cells: CHO (Chinese Hamster Ovary) cells, stably transfected; cotransfected with a CRE-luciferase reporter
T1 sequence (P23945 18-695): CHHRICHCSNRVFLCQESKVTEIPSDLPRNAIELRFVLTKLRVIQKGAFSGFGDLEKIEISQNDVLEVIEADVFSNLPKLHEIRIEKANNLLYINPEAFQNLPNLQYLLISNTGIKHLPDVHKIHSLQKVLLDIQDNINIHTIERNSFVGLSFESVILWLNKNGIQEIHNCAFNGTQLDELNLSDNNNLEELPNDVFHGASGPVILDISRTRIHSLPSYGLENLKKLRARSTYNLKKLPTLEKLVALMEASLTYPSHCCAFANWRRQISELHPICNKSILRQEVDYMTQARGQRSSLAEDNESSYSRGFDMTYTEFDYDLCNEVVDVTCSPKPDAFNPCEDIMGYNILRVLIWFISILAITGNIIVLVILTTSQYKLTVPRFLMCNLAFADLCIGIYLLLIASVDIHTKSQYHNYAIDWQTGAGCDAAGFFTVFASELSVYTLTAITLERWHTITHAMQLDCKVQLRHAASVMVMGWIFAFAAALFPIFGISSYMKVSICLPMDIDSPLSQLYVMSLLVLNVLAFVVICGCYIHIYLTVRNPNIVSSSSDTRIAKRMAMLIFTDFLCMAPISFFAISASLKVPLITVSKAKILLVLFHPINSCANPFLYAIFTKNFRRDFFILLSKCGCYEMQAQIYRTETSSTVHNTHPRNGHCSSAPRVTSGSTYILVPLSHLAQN
Nature of the test: Antagonistic activity at the human FSH receptor expressed in CHO cells (CRE-luciferase reporter). The format is cell-based. To be noted: CHO cells stably transfected with human FSH receptor and CRE-luciferase; with 49 μM recFSH; 4 hours incubation; read-out: IC50 (inhibition of recFSH-induced luciferase stimulation). The procedure:
Antagonistic Activity of Compounds at the Human FSH Receptor Expressed in CHO Cells
Antagonistic activity of the compounds at the human FSH receptor was determined in Chinese Hamster Ovary (CHO) cells stably transfected with the human FSH receptor and cotransfected to with a cAMP responsive element (CRE)/promoter directing the expression of a firefly luciferase reporter gene. Binding of the compounds to the Gs protein-coupled FSH receptor will result in an increase of cAMP, which in turn will induce an increased transactivation of the luciferase reporter. The cells (7,500 cells/well of a 384 well plate) were incubated in Dulbecco′ minimal essential F12 modified medium (Invitrogen), supplemented with 1 μg/ml bovine insulin, 5 μg/ml human apo-transferrin, 100 U/ml penicillin G and 100 μg/ml streptomycin with the test compounds (concentration between 0.316 nM and 10.0 μM) in duplicate together with […] recFSH (which, at this concentration in the absence of test compound, induces 80% of the maximal luciferase stimulation) in a humidified atmosphere (95%) at 5-7% CO2 and 37° C. The final concentration of DMSO was 1%. After 4 hours of incubation, plates were allowed to adjust to room temperature for 1 hour. Then, SteadyLite (PerkinElmer) solution was added to the wells and cells were allowed to lyse for at least 1 hour at room temperature. Subsequently, luciferase activity was measured in a luminescence counter. The signal is expressed as counts per second (cps). The IC50 (concentration of test compound causing half-maximal (50%) inhibition of the maximally attainable inhibition of the luciferase stimulation by the compound) and efficacy of the compounds were determined using the software program MathIQ (version 2.3, ID Business Solutions Limited).
A general note: Reporter assays use an easily measured gene product as a stand-in for the process of interest.

In the case of `COc1cccc(-c2cc3c(cc2C(=O)N[C@@H](CO)Cc2c[nH]c4ccccc24)-c2cc(OC)c(OC)cc2CC3)c1` [Example 25, (R)—N-(1-hydroxy-3-(1H-indol-3-v)propan-2-v)-6,7-dimethoxy-2-(3-methoxyphenyl)-9,10-dihydrophenanthrene-3-carboxamide], the half-maximal inhibitory concentration (IC50) was less than 100 nM.
Take `COc1cc2c(cc1OC)-c1cc(C(=O)N[C@@H](CO)Cc3c[nH]c4ccccc34)c(-c3cccc(C(N)=O)c3)cc1CC2` [Example 26, (R)-2-(3-carbamoylphenyl)-N-(1-hydroxy-3-(1H-indol-3-yl)propan-2-yl)-6,7-dimethoxy-9,10-dihydrophenanthrene-3-carboxamide]: the half-maximal inhibitory concentration (IC50) is 100 to 1000 nM.
To `C=CCOc1cc2c(cc1OC)-c1cc(C(=O)N[C@@H](CO)Cc3c[nH]c4ccccc34)c(-c3ccccc3F)cc1CC2` [Example 28, 7-(allyloxy)-2-(2-fluorophenyl)-N—((R)-1-hydroxy-3-(1H-indol-3-yl)propan-2-yl)-6-methoxy-9,10-dihydrophenanthrene-3-carboxamide] belongs less than 100 nM.
To `C=CCOc1cc2c(cc1OC)CCc1cc(-c3ccccc3F)c(C(=O)N[C@@H](CO)Cc3c[nH]c4ccccc34)cc1-2` [Example 29, 6-(allyloxy)-2-(2-fluorophenyl)-N—((R)-1-hydroxy-3-(1H-indol-3-yl)propan-2-yl)-7-methoxy-9,10-dihydrophenanthrene-3-carboxamide] belongs less than 100 nM.
To `COc1cc2c(cc1O)CCc1cc(-c3ccccc3F)c(C(=O)N[C@@H](CO)Cc3c[nH]c4ccccc34)cc1-2` [Example 30, 2-(2-fluorophenyl)-7-hydroxy-N—((R)-1-hydroxy-3-(1H-indol-3-yl)propan-2-yl)-6-methoxy-9,10-dihydrophenanthrene-3-carboxamide] belongs less than 100 nM; to `COc1cc2c(cc1O)-c1cc(C(=O)N[C@@H](CO)Cc3c[nH]c4ccccc34)c(-c3ccccc3F)cc1CC2` [Example 31, 2-(2-fluorophenyl)-6-hydroxy-N—((R)-1-hydroxy-3-(1H-indol-3-yl)propan-2-yl)-7-methoxy-9,10-dihydrophenanthrene-3-carboxamide], 100 to 1000 nM.
With `COc1cc2c(cc1C#N)-c1cc(C(=O)N[C@@H](CO)Cc3c[nH]c4ccccc34)c(OC(C)C)cc1CC2` [Example 33, (R)-6-cyano-N-(1-hydroxy-3-(1H-indol-3-yl)propan-2-yl)-2-isopropoxy-7-methoxy-9,10-dihydrophenanthrene-3-carboxamide], the half-maximal inhibitory concentration (IC50) fell in the range of 100 to 1000 nM.
To `COc1cc2c(cc1OC)-c1cc(C(=O)N[C@@H](CO)Cc3c[nH]c4ccccc34)c(OC(C)C)cc1OC2` [Example 34, (R)—N-(1-hydroxy-3-(1H-indol-3-yl)propan-2-yl)-3-isopropoxy-8,9-dimethoxy-6H-benzo[c]chromene-2-carboxamide] belongs less than 100 nM; to `CC(C)Oc1cc2c(cc1C(=O)N[C@@H](CO)Cc1c[nH]c3ccccc13)-c1cc3c(cc1CO2)OCO3` [Example 35, (R)—N-(1-hydroxy-3-(1H-indol-3-yl)propan-2-yl)-3-isopropoxy-8,9-(1′,3′-dioxolo)-6H-benzo[c]chromene-2-carboxamide], 100 to 1000 nM; to `COc1cc2c(cc1OC)-c1cc(C(=O)N[C@@H](CO)Cc3c[nH]c4ccccc34)c(-c3ccccc3F)cc1OC2` [Example 36, 3-(2-fluorophenyl)-N—((R)-1-hydroxy-3-(1H-indol-3-yl)propan-2-yl)-8,9-dimethoxy-6H-benzo[c]chromene-2-carboxamide], less than 100 nM.
On to `COc1cc2c(cc1OC)-c1cc(C(=O)N[C@@H](CO)Cc3c[nH]c4ccccc34)c(-c3cccc(F)c3F)cc1OC2` [Example 37, 3-(2,3-difluorophenyl)-N—((R)-1-hydroxy-3-(1H-indol-3-yl)propan-2-yl)-8,9-dimethoxy-6H-benzo[c]chromene-2-carboxamide], for which the IC50 was less than 100 nM.
To `COc1cc2c(cc1OC)-c1cc(C(=O)N[C@@H](CO)Cc3c[nH]c4ccccc34)c(-c3c(C)n[nH]c3C)cc1OC2` [Example 38, 3-(3,5-dimethyl-1H-pyrazol-4-yl)-N—((R)-1-hydroxy-3-(1H-indol-3-yl)propan-2-yl)-8,9-dimethoxy-6H-benzo[c]chromene-2-carboxamide] belongs less than 100 nM; to `COc1cc2c(cc1OC)-c1cc(C(=O)N[C@@H](CO)Cc3c[nH]c4ccccc34)c(-c3sccc3C)cc1OC2` [Example 39, N—((R)-1-hydroxy-3-(1H-indol-3-yl)propan-2-yl)-8,9-dimethoxy-3-(3-methylthiophen-2-yl)-6H-benzo[c]chromene-2-carboxamide], less than 100 nM.
To `COc1cc2c(cc1OC)-c1cc(C(=O)N[C@@H](CO)Cc3c[nH]c4ccccc34)c(-c3ccccc3)cc1OC2` [Example 40, (R)—N-(1-hydroxy-3-(1H-indol-3-yl)propan-2-yl)-8,9-dimethoxy-3-phenyl-6H-benzo[c]chromene-2-carboxamide] belongs less than 100 nM.
Take `COc1cc2c(cc1OC)-c1cc(C(=O)N[C@@H](CO)Cc3c[nH]c4ccccc34)c(C=C(C)C)cc1OC2` [Example 41, (R)—N-(1-hydroxy-3-(1H-indol-3-yl)propan-2-yl)-8,9-dimethoxy-3(2-methylprop-1-enyl)-6H-benzo[c]chromene-2-carboxamide]: the 50% inhibitory concentration (IC50) is less than 100 nM.
With `COc1cc2c(cc1OC)-c1cc(C(=O)N[C@@H](CO)Cc3c[nH]c4ccccc34)c(CC(C)C)cc1OC2` [Example 42, (R)—N-(1-hydroxy-3-(1H-indol-3-yl)propan-2-yl)-3-isobutyl-8,9-dimethoxy-6H-benzo[c]chromene-2-carboxamide], the IC50 is less than 100 nM.
With `COc1cc2c(cc1OC(C)C)COc1cc(-c3ccccc3F)c(C(=O)N[C@@H](CO)Cc3c[nH]c4ccccc34)cc1-2` [Example 43, 3-(2-fluorophenyl)-N—((R)-1-hydroxy-3-(1H-indol-3-yl)propan-2-yl)-8-isopropoxy-9-methoxy-6H-benzo[c]chromene-2-carboxamide], the IC50 is less than 100 nM.
With `COc1cc2c(cc1O)COc1cc(-c3ccccc3F)c(C(=O)N[C@@H](CO)Cc3c[nH]c4ccccc34)cc1-2` [Example 44, 3-(2-fluorophenyl)-8-hydroxy-N—((R)-1-hydroxy-3-(1H-indol-3-yl)propan-2-yl)-9-methoxy-6H-benzo[c]chromene-2-carboxamide], the half-maximal inhibitory concentration (IC50) was less than 100 nM.
To `COCCOc1cc2c(cc1OC)-c1cc(C(=O)N[C@@H](CO)Cc3c[nH]c4ccccc34)c(-c3ccccc3F)cc1OC2` [Example 45, 3-(2-fluorophenyl)-N—((R)-1-hydroxy-3-(1H-indol-3-yl)propan-2-yl)-9-methoxy-8-(2-methoxyethoxy)-6H-benzo[c]chromene-2-carboxamide] belongs less than 100 nM; to `C=CCOc1cc2c(cc1OC)-c1cc(C(=O)N[C@@H](CO)Cc3c[nH]c4ccccc34)c(-c3ccccc3F)cc1OC2` [Example 46, 8-(allyloxy)-3-(2-fluorophenyl)-N—((R)-1-hydroxy-3-(1H-indol-3-yl)propan-2-yl)-9-methoxy-6H-benzo[c]chromene-2-carboxamide], less than 100 nM; to `COc1cc2c(cc1OCCO)COc1cc(-c3ccccc3F)c(C(=O)N[C@@H](CO)Cc3c[nH]c4ccccc34)cc1-2` [Example 47, 3-(2-fluorophenyl)-N—((R)-1-hydroxy-3-(1H-indol-3-yl)propan-2-yl)-8-(2-hydroxyethoxy)-9-methoxy-6H-benzo[c]chromene-2-carboxamide], less than 100 nM.
Regarding `COc1cc2c(cc1OCCN(C)C)COc1cc(-c3ccccc3F)c(C(=O)N[C@@H](CO)Cc3c[nH]c4ccccc34)cc1-2` [Example 48, 8-(2-(dimethylamino)ethoxy)-3-(2-fluorophenyl)-N—((R)-1-hydroxy-3-(1H-indol-3-yl)propan-2-yl)-9-methoxy-6H-benzo[c]chromene-2-carboxamide], the IC50 was less than 100 nM.
